Drawing on patent US9273057B2 (Bristol-Myers Squibb Company, priority 2012, dated 2016), this text covers IC50 for 26 molecules.

Sequence of CK2A1 (CK2α/β) (P68400 whole entry, species assumed): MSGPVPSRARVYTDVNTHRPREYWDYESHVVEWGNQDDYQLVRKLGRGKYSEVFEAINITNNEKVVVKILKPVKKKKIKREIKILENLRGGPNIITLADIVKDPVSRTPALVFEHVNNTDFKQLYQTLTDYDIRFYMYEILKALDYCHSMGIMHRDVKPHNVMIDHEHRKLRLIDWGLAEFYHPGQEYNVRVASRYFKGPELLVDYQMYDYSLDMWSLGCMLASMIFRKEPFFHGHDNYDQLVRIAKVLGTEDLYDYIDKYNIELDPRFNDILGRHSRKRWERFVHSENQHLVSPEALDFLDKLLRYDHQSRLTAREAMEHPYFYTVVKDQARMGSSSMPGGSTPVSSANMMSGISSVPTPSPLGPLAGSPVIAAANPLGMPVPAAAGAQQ
Sequence of CK2A1 (CK2α/β) (P67870 whole entry partner, species assumed): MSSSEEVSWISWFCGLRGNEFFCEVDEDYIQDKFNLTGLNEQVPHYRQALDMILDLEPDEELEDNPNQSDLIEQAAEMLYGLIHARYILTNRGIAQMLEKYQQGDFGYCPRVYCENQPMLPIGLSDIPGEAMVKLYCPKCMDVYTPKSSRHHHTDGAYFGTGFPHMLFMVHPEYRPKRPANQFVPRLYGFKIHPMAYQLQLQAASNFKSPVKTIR

The test addresses CK2A1 (CK2α/β) (Homo sapiens, UniProt P68400). Put plainly: CK2 kinase assay, CK2A1 (CK2α/β). Type of test: biochemical. As to conditions: Table A; read-out: CK2A1 (CK2α/β) (IC50).
For the molecule `N#Cc1cnc2c(NC3CC3)nc(Nc3cc(C(F)F)cc(N4CCC(NC5COC5)CC4)c3Cl)nn12` [Example 256, 2-((2-chloro-5-(difluoromethyl)-3-(4-(3-oxetanylamino)-1-piperidinyl)phenyl)amino)-4-(cyclopropylamino)imidazo[2,1-f][1,2,4]triazine-7-carbonitrile], the IC50 came out at 750 pM.
Take `N#Cc1cc(CN2CCOCC2)c(Cl)c(Nc2nc(NC3CC3)c3ncc(C#N)n3n2)c1` [Example 404, 2-((2-chloro-5-cyano-3-(morpholinomethyl)phenyl)amino)-4-(cyclopropylamino)imidazo[2,1-f][1,2,4]triazine-7-carbonitrile]: the IC50 came to 540 pM.
As for `N#Cc1cc(Nc2nc(NC3CC3)c3ncc(C#N)n3n2)c(Cl)c(N2CCC[C@@H](NC3COC3)C2)c1` [Example 42, 2-((2-chloro-5-cyano-3-((3R)-3-(3-oxetanylamino)-1-piperidinyl)phenyl)amino)-4-(cyclopropylamino)imidazo [2,1-f][1,2,4]triazine-7-carbonitrile], the figure is 2580 pM; as for `CN1CCN2CCN(c3cc(C#N)cc(Nc4nc(NC5CC5)c5ncc(C#N)n5n4)c3Cl)CC2C1=O` (racemic) [Example 626, (+/−)-2-((2-chloro-5-cyano-3-(8-methyl-9-oxohexahydro-1H-pyrazino[1,2-a]pyrazin-2(6H)-yl)phenyl)amino)-4-(cyclopropylamino)imidazo[2,1-f][1,2,4]triazine-7-carbonitrile], 740 pM; as for `CCNc1nc(Nc2cc(C#N)cc(N3CCN(C4COC4)CC3)c2F)nn2c(C#N)cnc12` [Example 556, 2-((5-cyano-2-fluoro-3-(4-(oxetan-3-yl)piperazin-1-yl)phenyl)amino)-4-(ethylamino)imidazo[2,1-f][1,2,4]triazine-7-carbonitrile], 3680 pM.
As for `N#Cc1cc(CN2CCC(F)(F)CC2)c(Cl)c(Nc2nc(NC3CC3)c3ncc(C#N)n3n2)c1` [Example 477, 2-({2-chloro-5-cyano-3-[(4,4-difluoropiperidin-1-yl)methyl]phenyl}amino)-4-(cyclopropylamino)imidazo[2,1-f][1,2,4]triazine-7-carbonitrile], the figure is 2430 pM; as for `CN1CCC2(CCN(c3cc(C#N)cc(Nc4nc(NC5CC5)c5ncc(C#N)n5n4)c3Cl)CC2)C1=O` (racemic) [Example 779, (+/−)-2-((2-chloro-5-cyano-3-(2-methyl-1-oxo-2,8-diazaspiro[4.5]decan-8-yl)phenyl)amino)-4-(cyclopropylamino)imidazo[2,1-f][1,2,4]triazine-7-carbonitrile], 630 pM; as for `COC(=O)N[C@@H]1CCN(c2cc(C#N)cc(Nc3nc(NC4CC4)c4ncc(C#N)n4n3)c2Cl)C[C@H]1OC(=O)[C@H](C)N` [Example 195, (3R,4R)-1-(2-chloro-5-cyano-3-((7-cyano-4-(cyclopropylamino)imidazo[2,1-f][1,2,4]triazin-2-yl)amino)phenyl)-4-((methoxycarbonyl)amino)-3-piperidinyl L-alaninate], 500 pM.
With `N#Cc1cc(Nc2nc(NC3CC3)c3ncc(C#N)n3n2)c(Cl)c(C2(O)CCN(C3COC3)C2)c1` (centres unmarked) [Example 652, 2-((2-chloro-5-cyano-3-(3-hydroxy-1-(oxetan-3-yl)pyrrolidin-3-yl)phenyl)amino)-4-(cyclopropylamino)imidazo[2,1-f][1,2,4]triazine-7-carbonitrile], the IC50 is 830 pM.
As for `N#Cc1cc(Nc2nc(NC3CC3)c3ncc(C#N)n3n2)c(Cl)c(C2CN(C3COC3)C2)c1` [Example 358, 2-((2-chloro-5-cyano-3-(1-(oxetan-3-yl)azetidin-3-yl)phenyl)amino)-4-(cyclopropylamino)imidazo[2,1-f][1,2,4]triazine-7-carbonitrile], the figure is 870 pM.
The value for `N#Cc1cc(Nc2nc(NC3CC3)c3ncc(C#N)n3n2)c(Cl)c(N2CCN(C(=O)CC3CCOCC3)CC2)c1` [Example 95, 2-((2-chloro-5-cyano-3-(4-(tetrahydro-2H-pyran-4-ylacetyl)-1-piperazinyl)phenyl)amino)-4-(cyclopropylamino) imidazo[2,1-f][1,2,4] triazine-7-carbonitrile] was 920 pM.
For `COCCC(=O)N1CCN(c2cc(C#N)cc(Nc3nc(NC4CC4)c4ncc(C#N)n4n3)c2Cl)CC1` [Example 87, 2-((2-chloro-5-cyano-3-(4-(3-methoxypropanoyl)-1-piperazinyl)phenyl)amino)-4-(cyclopropylamino) imidazo[2,1-f][1,2,4] triazine-7-carbonitrile], the IC50 worked out at 760 pM.
As for `COCCN(C)CC1CN(c2cc(C#N)cc(Nc3nc(NC4CC4)c4ncc(C#N)n4n3)c2Cl)CCN1C` (centres unmarked) [Example 707, 2-{[2-chloro-5-cyano-3-(3-{[(2-methoxyethyl)(methyl)amino]methyl}-4-methylpiperazin-1-yl)phenyl]amino}-4-(cyclopropylamino)imidazo[2,1-f][1,2,4]triazine-7-carbonitrile], the figure is 1350 pM.
The value for `COC(=O)N[C@H]1CN(c2cc(C#N)cc(Nc3nc(NC4CC4)c4ncc(C#N)n4n3)c2Cl)C[C@H]1CF` [Example 287, methyl ((3R,4R)-1-(2-chloro-5-cyano-3-((7-cyano-4-(cyclopropylamino)imidazo[2,1-f][1,2,4]triazin-2-yl)amino)phenyl)-4-(fluoromethyl)-3-pyrrolidinyl)carbamate] was 1170 pM; that for `CCNc1nc(Nc2cc(C#N)cc(N[C@@H]3CCN(C(=O)OC)C[C@H]3O)c2Cl)nn2c(C#N)cnc12` [Example 846, (3R,4R)-methyl 4-((2-chloro-5-cyano-3-((7-cyano-4-(ethylamino)imidazo[2,1-f][1,2,4]triazin-2-yl)amino)phenyl)amino)-3-hydroxypiperidine-1-carboxylate] was 17300 pM.
As for `CN1C[C@H]2C[C@@H]1CN2c1cc(C#N)cc(Nc2nc(NC3CC3)c3ncc(C#N)n3n2)c1Cl` [Example 5, 2-((2-chloro-5-cyano-3-((1R,4R)-5-methyl-2,5-diazabicyclo[2.2.1]hept-2-yl)phenyl)amino)-4-(cyclopropylamino)imidazo [2,1-f][1,2,4]triazine-7-carbonitrile], the figure is 440 pM; as for `CC(C)N(C1CCN(c2cc(C#N)cc(Nc3nc(NC4CC4)c4ncc(C#N)n4n3)c2Cl)CC1)C1CC(=O)N(C)C1` (centres unmarked) [Example 716, 2-[(2-chloro-5-cyano-3-{4-[(1-methyl-5-oxopyrrolidin-3-yl)(propan-2-yl)amino]piperidin-1-yl}phenyl)amino]-4-(cyclopropylamino)imidazo [2,1-f][1,2,4]triazine-7-carbonitrile], 32600 pM; as for `CC1(C(=O)N2CC(N3CCN(c4cc(C#N)cc(Nc5nc(NC6CC6)c6ncc(C#N)n6n5)c4Cl)CC3)C2)COC1` [Example 522, 2-[(2-chloro-5-cyano-3-{4-[1-(3-methyloxetane-3-carbonyl)azetidin-3-yl]piperazin-1-yl}phenyl)amino]-4-(cyclopropylamino)imidazo[2,1-f][1,2,4]triazine-7-carbonitrile], 3690 pM.
On to `N#Cc1cnc2c(NC3CC3)nc(Nc3cc(C(F)F)cc(N4CCC(N5CC(F)C5)CC4)c3Cl)nn12` [Example 258, 2-((2-chloro-5-(difluoromethyl)-3-(4-(3-fluoro-1-azetidinyl)-1-piperidinyl)phenyl)amino)-4-(cyclopropylamino)imidazo[2,1-f][1,2,4]triazine-7-carbonitrile], for which the IC50 stood at 1930 pM.
As for `CC(C)(O)CN1CCC2CN(c3cc(C#N)cc(Nc4nc(NC5CC5)c5ncc(C#N)n5n4)c3Cl)CCC21` (centres unmarked) [Example 450, 2-((2-chloro-5-cyano-3-(1-(2-hydroxy-2-methylpropyl)hexahydro-1H-pyrrolo[3,2-c]pyridin-5(6H)-yl)phenyl)amino)-4-(cyclopropylamino)imidazo[2,1-f][1,2,4]triazine-7-carbonitrile], the IC50 amounted to 1500 pM.
As for `N#Cc1cc(Nc2nc(NC3CC3)c3ncc(C#N)n3n2)c(Cl)c(N2CCOC(CN3CC(F)C3)C2)c1` (centres unmarked) [Example 705, 2-[(2-chloro-5-cyano-3-{2-[(3-fluoroazetidin-1-yl)methyl]morpholin-4-yl}phenyl)amino]-4-(cyclopropylamino)imidazo[2,1-f][1,2,4]triazine-7-carbonitrile], the figure is 890 pM.
The value for `N#Cc1cc(CN2CCNCC(O)C2)c(Cl)c(Nc2nc(NC3CC3)c3ncc(C#N)n3n2)c1` (centres unmarked) [Example 669, 2-((2-chloro-5-cyano-3-((6-hydroxy-1,4-diazepan-1-yl)methyl)phenyl)amino)-4-(cyclopropylamino)imidazo[2,1-f][1,2,4]triazine-7-carbonitrile] was 520 pM.
Consider `COC(=O)N[C@H]1CCN(c2cc(C#N)cc(Nc3nc(NC4CC4)c4ncc(C#N)n4n3)c2Cl)C[C@H]1NCC(F)F` [Example 749, methyl ((3R,4S)-1-(2-chloro-5-cyano-3-((7-cyano-4-(cyclopropylamino)imidazo[2,1-f][1,2,4]triazin-2-yl)amino)phenyl)-3-((2,2-difluoroethyl)amino)piperidin-4-yl)carbamate], for which the IC50 worked out at 700 pM.
As for `CC(=O)N1CC(N2CCN(c3cc(C(F)F)cc(Nc4nc(NC5CC5)c5ncc(C#N)n5n4)c3Cl)CC2)C1` [Example 266, 2-((3-(4-(1-acetyl-3-azetidinyl)-1-piperazinyl)-2-chloro-5-(difluoromethyl)phenyl)amino)-4-(cyclopropylamino)imidazo[2,1-f][1,2,4]triazine-7-carbonitrile], the figure is 2970 pM; as for `N#Cc1cc(Nc2nc(NC3CC3)c3ncc(C#N)n3n2)c(Cl)c(N2CCN(C(=O)Cc3nnn[nH]3)CC2)c1` [Example 99, 2-((2-chloro-5-cyano-3-(4-(1H-tetrazol-5-ylacetyl)-1-piperazinyl)phenyl)amino)-4-(cyclopropylamino) imidazo[2,1-f][1,2,4] triazine-7-carbonitrile], 320 pM.
The value for `COC(=O)N[C@H]1CCN(c2cc(C#N)cc(Nc3nc(NC4CC4)c4ncc(C#N)n4n3)c2Cl)C[C@H]1NC1COC1` (single isomer, unassigned) [Example 745] was 1240 pM.
